What is called IC50 is the concentration needed to halve the response being measured. Read a low IC50 as inhibition by little substance.

The source of these data is patent US10457655B2, “Compounds and compositions for inhibition of FASN” (FORMA Therapeutics, Inc., priority 2013, dated 2019).

Chain of FASN enzyme (P49327 whole entry): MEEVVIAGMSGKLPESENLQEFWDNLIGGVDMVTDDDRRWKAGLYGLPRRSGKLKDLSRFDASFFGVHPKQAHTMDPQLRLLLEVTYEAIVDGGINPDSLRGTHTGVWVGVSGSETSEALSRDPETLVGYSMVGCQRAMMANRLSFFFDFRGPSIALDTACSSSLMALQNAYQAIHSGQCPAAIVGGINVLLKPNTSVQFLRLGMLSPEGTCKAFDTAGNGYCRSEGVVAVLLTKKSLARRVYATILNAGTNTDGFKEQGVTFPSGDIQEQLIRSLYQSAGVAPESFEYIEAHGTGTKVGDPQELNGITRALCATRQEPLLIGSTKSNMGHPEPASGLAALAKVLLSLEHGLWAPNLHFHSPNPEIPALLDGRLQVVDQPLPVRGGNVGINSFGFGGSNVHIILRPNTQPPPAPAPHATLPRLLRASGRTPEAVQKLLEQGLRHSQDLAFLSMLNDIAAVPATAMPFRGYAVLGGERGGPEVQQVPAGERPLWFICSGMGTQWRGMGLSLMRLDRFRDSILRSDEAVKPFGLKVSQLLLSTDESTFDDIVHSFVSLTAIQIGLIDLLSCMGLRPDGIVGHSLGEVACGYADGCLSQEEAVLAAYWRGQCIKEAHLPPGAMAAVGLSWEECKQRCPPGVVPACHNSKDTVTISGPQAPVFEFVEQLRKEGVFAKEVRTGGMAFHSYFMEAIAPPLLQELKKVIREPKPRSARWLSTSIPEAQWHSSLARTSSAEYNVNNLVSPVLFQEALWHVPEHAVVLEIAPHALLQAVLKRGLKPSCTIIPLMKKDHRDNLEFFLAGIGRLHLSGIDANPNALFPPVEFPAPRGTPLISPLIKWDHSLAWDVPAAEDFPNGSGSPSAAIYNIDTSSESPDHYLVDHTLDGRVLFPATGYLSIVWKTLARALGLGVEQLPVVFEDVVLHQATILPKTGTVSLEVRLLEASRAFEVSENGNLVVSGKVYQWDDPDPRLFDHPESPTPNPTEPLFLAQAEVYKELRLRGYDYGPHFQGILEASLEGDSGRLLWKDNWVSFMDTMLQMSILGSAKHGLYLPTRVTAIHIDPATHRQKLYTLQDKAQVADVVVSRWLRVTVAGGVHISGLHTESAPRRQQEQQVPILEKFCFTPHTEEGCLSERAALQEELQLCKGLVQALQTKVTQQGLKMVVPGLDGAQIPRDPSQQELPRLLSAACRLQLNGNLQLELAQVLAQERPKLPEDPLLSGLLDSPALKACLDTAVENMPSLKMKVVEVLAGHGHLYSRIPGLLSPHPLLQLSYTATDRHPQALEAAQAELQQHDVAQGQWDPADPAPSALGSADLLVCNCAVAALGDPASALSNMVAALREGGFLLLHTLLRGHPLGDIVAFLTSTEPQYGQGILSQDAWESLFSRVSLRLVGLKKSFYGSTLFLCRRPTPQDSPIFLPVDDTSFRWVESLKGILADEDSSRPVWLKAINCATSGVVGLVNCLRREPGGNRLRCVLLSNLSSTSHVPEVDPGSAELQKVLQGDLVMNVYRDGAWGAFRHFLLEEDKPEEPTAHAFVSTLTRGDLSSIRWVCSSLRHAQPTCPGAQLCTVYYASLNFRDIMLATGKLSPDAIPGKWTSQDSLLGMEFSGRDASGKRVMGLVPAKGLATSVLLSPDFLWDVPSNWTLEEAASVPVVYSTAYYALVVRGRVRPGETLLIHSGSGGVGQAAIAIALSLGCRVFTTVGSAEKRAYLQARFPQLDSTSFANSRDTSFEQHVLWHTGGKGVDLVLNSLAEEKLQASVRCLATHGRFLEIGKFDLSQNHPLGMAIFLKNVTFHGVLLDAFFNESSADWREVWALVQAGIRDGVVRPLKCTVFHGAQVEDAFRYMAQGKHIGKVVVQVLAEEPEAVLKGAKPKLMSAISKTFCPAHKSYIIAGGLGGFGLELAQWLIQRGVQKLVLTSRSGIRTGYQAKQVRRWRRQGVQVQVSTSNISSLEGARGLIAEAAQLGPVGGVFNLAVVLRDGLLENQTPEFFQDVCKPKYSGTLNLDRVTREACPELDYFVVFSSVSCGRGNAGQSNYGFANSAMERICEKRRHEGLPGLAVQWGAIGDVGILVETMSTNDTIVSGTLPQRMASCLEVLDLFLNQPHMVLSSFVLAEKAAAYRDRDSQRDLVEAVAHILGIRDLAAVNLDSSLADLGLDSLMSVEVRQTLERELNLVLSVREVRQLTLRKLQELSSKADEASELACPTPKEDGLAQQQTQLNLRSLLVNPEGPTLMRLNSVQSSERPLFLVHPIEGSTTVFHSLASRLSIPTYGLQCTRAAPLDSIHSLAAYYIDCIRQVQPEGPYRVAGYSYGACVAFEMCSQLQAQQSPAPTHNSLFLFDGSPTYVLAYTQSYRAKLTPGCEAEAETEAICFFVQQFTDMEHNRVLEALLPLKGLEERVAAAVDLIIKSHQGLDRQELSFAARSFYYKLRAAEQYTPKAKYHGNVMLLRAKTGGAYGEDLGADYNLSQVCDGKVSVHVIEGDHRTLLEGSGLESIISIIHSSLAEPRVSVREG

One assay concerns the target FASN enzyme (Homo sapiens, UniProt P49327). The assay is described as follows: Enzymatic Assay for FASN Inhibitors. In kind it is biochemical.
Conditions: not given
As to the method:
Assays were performed in a 384-well black plate to measure the inhibition of FASN activities by individual compounds herein disclosed. An aliquot of 250 nL of compound was incubated with 10 μL of 40 nM FASN enzyme in assay buffer (50 mM HEPES pH=7.3, 0.5 mM EDTA, 1 mM Ascorbate, 100 mM NaCl and 0.04% TritonX-100) in each well at 25° C. for 60 minutes. After the plate was centrifuged briefly, 10 μL of substrate mix (20 μM Acetyl-CoA, 60 μM Malonyl-CoA, and 100 μM NADPH in assay buffer) was added to each well. The reaction was maintained at 25° C. for 90 minutes. The reaction was then quenched by adding 10 μL of 90 μM 7-Diethylamino-3-(4′-Maleimidylpheynyl)-4-Methylcoumarin in 50/50 Ethanol/H2O solution. The assay plate was incubated at 25° C. for 15 minutes, and read on a plate reader with excitation and emission wavelength at 360 nm and 530 nm, respectively. The IC50 of a given compound was calculated by fitting the dose response curve with a four parameter logistic equation.
For the compound `CS(=O)(=O)n1ccc2ccc(-c3ccc(C(=O)N4CCN(C(=O)C5(O)CC5)CC4)cc3)cc21` [1-{4-[4-(1-methanesulfonyl-1H-indol-6-yl)benzoyl]piperazine-1-carbonyl}cyclopropan-1-ol], the half-maximal inhibitory concentration (IC50) was below 500 nM.
As for `Cn1cnc2cc(-c3ccc(C(=O)N4CCN(C(=O)C5(O)CC5)CC4)c(F)c3)ccc21` [1-{4-[2-fluoro-4-(1-methyl-1H-1,3-benzodiazol-5-yl)benzoyl]piperazine-1-carbonyl}cyclopropan-1-ol], the IC50 was below 500 nM.
The same measure, in the same setting: as for `O=C(c1ccc(-c2nc3ccc(F)cc3o2)c(Cl)c1)N1CCN(C(=O)C2(O)CC2)CC1` [1-{4-[3-chloro-4-(6-fluoro-1,3-benzoxazol-2-yl)benzoyl]piperazine-1-carbonyl}cyclopropan-1-ol], the figure is below 500 nM; as for `N#CCc1cccc(-c2ccc(C(=O)N3CCN(C(=O)C4(O)CC4)CC3)cc2)c1` [2-(3-{4-[4-(1-hydroxycyclopropanecarbonyl)piperazine-1-carbonyl]phenyl}phenyl)acetonitrile], below 500 nM; as for `O=C(c1ccc(-c2ccc3ncn(CCO)c3c2)cc1)N1CCN(C(=O)C2(O)CC2)CC1` [1-(4-{4-[1-(2-hydroxyethyl)-1H-1,3-benzodiazol-6-yl]benzoyl}piperazine-1-carbonyl)cyclopropan-1-ol], below 500 nM.
Compound `Cc1nn(C)c2ccc(-c3ccc(C(=O)N4CCN(C(=O)C5(O)CC5)CC4)c(F)c3)cc12` [1-{4-[4-(1,3-dimethyl-1H-indazol-5-yl)-2-fluorobenzoyl]piperazine-1-carbonyl}cyclopropan-1-ol] gave an IC50 below 500 nM.
Same read-out and setting: the result for `Cn1cc2ccc(-c3ccc(C(=O)N4CCN(C(=O)C5(O)CC5)CC4)cc3Cl)cc2n1` [1-{4-[3-chloro-4-(2-methyl-2H-indazol-6-yl)benzoyl]piperazine-1-carbonyl}cyclopropan-1-ol] reads below 500 nM.
The same measure, in the same setting: the result for `O=C(c1ccc(-c2nc3cc(Cl)ccc3[nH]2)cc1)N1CCN(C(=O)C2(O)CC2)CC1` [1-[(4-{[4-(5-chloro-1H-1,3-benzodiazol-2-yl)phenyl]carbonyl}piperazin-1-yl)carbonyl]cyclopropan-1-ol] reads below 500 nM; that for `CC1(C)CN(C(=O)C2(O)CC2)CCN1C(=O)c1ccc(-c2nc3ccc(F)cc3o2)cc1`, below 500 nM.
Regarding `Cc1n[nH]c2c(-c3ccc(C(=O)N4CCN(C(=O)C5(N)CC5)CC4)cc3)cccc12`, the IC50 is below 500 nM.
Still for that read-out and setting: the result for `CC(C)OC(=O)Nc1cccc(-c2ccc(C(=O)N3CCN(C(=O)C4(O)CC4)CC3)cc2)c1` [propan-2-yl N-(3-{4-[4-(1-hydroxycyclopropanecarbonyl)piperazine-1-carbonyl]phenyl}phenyl)carbamate] reads below 500 nM; that for `O=C(c1ccc(-c2nc3ccc(Cl)cc3o2)cc1Cl)N1CCN(C(=O)C2(O)CC2)CC1` [1-{4-[2-chloro-4-(6-chloro-1,3-benzoxazol-2-yl)benzoyl]piperazine-1-carbonyl}cyclopropan-1-ol], below 500 nM.
`CC1Cc2ccccc2N1c1ccc(C(=O)N2CCN(C(=O)C3(O)CC3)CC2)cc1` (stereo not shown) [1-{4-[4-(2-methyl-2,3-dihydro-1H-indol-1-yl)benzoyl]piperazine-1-carbonyl}cyclopropan-1-ol] registered an IC50 below 500 nM.
Regarding `O=C(c1ccc(-c2nc3ccc(Cl)cc3o2)c(F)c1)N1CCN(C(=O)C2(O)CC2)CC1` [1-{4-[4-(6-chloro-1,3-benzoxazol-2-yl)-3-fluorobenzoyl]piperazine-1-carbonyl}cyclopropan-1-ol], the IC50 is below 500 nM.
The same measure, in the same setting: as for `C[C@H]1CN(C(=O)c2ccc(-c3ccc4c(c3)ncn4C)cc2)CCN1C(=O)C1(O)CC1` [1-[(2S)-2-methyl-4-[4-(1-methyl-1H-1,3-benzodiazol-5-yl)benzoyl]piperazine-1-carbonyl]cyclopropan-1-ol], the figure is below 500 nM; as for `Cn1cnc2cc(-c3ccc(C(=O)N4CCN(C(=O)C5(O)CCC5)CC4)cc3)ccc21` [1-{4-[4-(1-methyl-1H-1,3-benzodiazol-5-yl)benzoyl]piperazine-1-carbonyl}cyclobutan-1-ol], below 500 nM.
In turn, `Cc1c2ccccc2nn1-c1ccc(C(=O)N2CCN(C(=O)C3(O)CC3)CC2)cc1` [1-{4-[4-(3-methyl-2H-indazol-2-yl)benzoyl]piperazine-1-carbonyl}cyclopropan-1-ol] came in with a half-inhibitory concentration (IC50) below 500 nM.
On the same count and under the same terms, the result for `O=C(c1ccc(-c2nc3ccc(F)cc3o2)c(F)c1)N1CCN(C(=O)C2(O)CC2)CC1` [1-{4-[3-fluoro-4-(6-fluoro-1,3-benzoxazol-2-yl)benzoyl]piperazine-1-carbonyl}cyclopropan-1-ol] reads below 500 nM; that for `O=C(c1ccc(-c2cc(Cl)ccc2F)cc1Cl)N1CCN(C(=O)C2(O)CC2)CC1` [1-{4-[2-chloro-4-(5-chloro-2-fluorophenyl)benzoyl]piperazine-1-carbonyl}cyclopropan-1-ol], below 500 nM.
Still for that read-out and setting: the result for `O=C(c1ccc(-c2cccc3nsnc23)cc1)N1CCN(C(=O)C2(O)CC2)CC1` reads below 500 nM.
Same read-out and setting: the result for `C[C@H]1CN(C(=O)c2ccc(-c3ccc4c(c3)ncn4C)cc2)CCN1C(=O)C1(N)CC1` [1-[(2S)-2-methyl-4-[4-(1-methyl-1H-1,3-benzodiazol-5-yl)benzoyl]piperazine-1-carbonyl]cyclopropan-1-amine] reads below 500 nM; that for `O=C(c1ccc(-c2nc3ccccn3c2Cl)c(Cl)c1)N1CCN(C(=O)C2(O)CC2)CC1` [1-[4-(3-chloro-4-{3-chloroimidazo[1,2-a]pyridin-2-yl}benzoyl)piperazine-1-carbonyl]cyclopropan-1-ol], below 500 nM; that for `O=C(c1ccc(-c2ccc(Cl)cc2)cc1)N1CCN(C(=O)C2(O)CC2)CC1`, below 500 nM.
Compound `Nc1cc(-c2cccc(-c3ccc(C(=O)N4CCN(C(=O)C5(O)CC5)CC4)cc3)c2)no1` [1-(4-{4-[3-(5-amino-1,2-oxazol-3-yl)phenyl]benzoyl}piperazine-1-carbonyl)cyclopropan-1-ol] yielded a concentration for half-maximal inhibition (IC50) below 500 nM.
On the same count and under the same terms, as for `C[C@@H]1CN(C(=O)c2ccc(-c3nc4ccc(F)cc4o3)cc2)CCN1C(=O)C1(O)CC1` [1-[(2R)-4-[4-(6-fluoro-1,3-benzoxazol-2-yl)benzoyl]-2-methylpiperazine-1-carbonyl]cyclopropan-1-ol], the figure is below 500 nM; as for `N#Cc1ccc2oc(-c3ccc(C(=O)N4CCN(C(=O)C5(O)CC5)CC4)cc3)nc2c1` [2-[4-({4-[(1-hydroxycyclopropyl)carbonyl]piperazin-1-yl}carbonyl)phenyl]-1,3-benzoxazole-5-carbonitrile], below 500 nM.

Staying with this assay, now noted: FASN enzymatic assay; Table 2-2.
The compound `O=C(c1ccc(-c2ccc(F)cc2C(F)(F)F)cc1)N1CCN(C(=O)C2(O)CC2)CC1` [1-{[4-({4-[4-fluoro-2-(trifluoromethyl)phenyl]phenyl}carbonyl)piperazin-1-yl]carbonyl}cyclopropan-1-ol] displayed a concentration for half-maximal inhibition (IC50) of 500 to 5000 nM.
On the same count and under the same terms, as for `O=C(c1ccc(-c2ccc3nonc3c2)cc1)N1CCN(C(=O)C2(O)CC2)CC1` [1-[(4-{[4-(2,1,3-benzoxadiazol-5-yl)phenyl]carbonyl}piperazin-1-yl)carbonyl]cyclopropan-1-ol], the figure is 500 to 5000 nM; as for `COc1ccc2[nH]c(-c3ccc(C(=O)N4CCN(C(=O)C5(O)CC5)CC4)cc3)nc2c1` [1-[(4-{[4-(5-methoxy-1H-1,3-benzodiazol-2-yl)phenyl]carbonyl}piperazin-1-yl)carbonyl]cyclopropan-1-ol], 500 to 5000 nM.
Same read-out and setting: the result for `O=C(c1ccc(-c2ccc3nccn3c2)cc1)N1CCN(C(=O)C2(O)CC2)CC1` [1-({4-[(4-{imidazo[1,2-a]pyridin-6-yl}phenyl)carbonyl]piperazin-1-yl}carbonyl)cyclopropan-1-ol] reads 500 to 5000 nM; that for `O=C(c1ccc(-c2ccc3oc(=O)[nH]c3c2)cc1)N1CCN(C(=O)C2(O)CC2)CC1` [5-[4-({4-[(1-hydroxycyclopropyl)carbonyl]piperazin-1-yl}carbonyl)phenyl]-2,3-dihydro-1,3-benzoxazol-2-one], 500 to 5000 nM.

The assay is the same for the next values; noted with them: FASN enzymatic assay; Table 2-3.
Compound `COc1ccc(F)c(-c2ccc(C(=O)N3CCN(C(=O)C4(O)CC4)CC3)cc2)c1` [1-[(4-{[4-(2-fluoro-5-methoxyphenyl)phenyl]carbonyl}piperazin-1-yl)carbonyl]cyclopropan-1-ol] registered a 50% inhibitory concentration (IC50) of at least 5000 nM.
Still for that read-out and setting: as for `Cc1ccc(-c2ccc(C(=O)N3CCN(C(=O)C4(O)CC4)CC3)cc2)c(F)c1` [1-[(4-{[4-(2-fluoro-4-methylphenyl)phenyl]carbonyl}piperazin-1-yl)carbonyl]cyclopropan-1-ol], the figure is at least 5000 nM; as for `COc1cc(F)c(F)cc1-c1ccc(C(=O)N2CCN(C(=O)C3(O)CC3)CC2)cc1` [1-[(4-{[4-(4,5-difluoro-2-methoxyphenyl)phenyl]carbonyl}piperazin-1-yl)carbonyl]cyclopropan-1-ol], at least 5000 nM; as for `COc1c(Cl)ccc(-c2ccc(C(=O)N3CCN(C(=O)C4(O)CC4)CC3)cc2)c1Cl` [1-[(4-{[4-(2,4-dichloro-3-methoxyphenyl)phenyl]carbonyl}piperazin-1-yl)carbonyl]cyclopropan-1-ol], at least 5000 nM.
For the compound `O=C(c1ccc(Oc2ccccc2)cc1)N1CCN(C(=O)C2(O)CC2)CC1` [1-({4-[(4-phenoxyphenyl)carbonyl]piperazin-1-yl}carbonyl)cyclopropan-1-ol], the IC50 is at least 5000 nM.
Same read-out and setting: the result for `COc1ccc(-c2ccc(C(=O)N3CCN(C(=O)C4(O)CC4)CC3)cc2)c(Cl)c1` [1-[(4-{[4-(2-chloro-4-methoxyphenyl)phenyl]carbonyl}piperazin-1-yl)carbonyl]cyclopropan-1-ol] reads at least 5000 nM.
